Reference: article PMC10605370 (Biomolecules, 2023)
Each block holds one compound with its values, some of them ahead of it.

Columns and labels:
[1] = target: phosphorylation-null (PO4-null) rat D2 dopamine receptor, long isoform, fused to Rluc8 (rat) (UniProt P61169); experiment: FRET or BRET; GRK2 recruitment BRET in live HEK293 cells transfected with D2R-Rluc8 (donor) and GRK2-rGFP (acceptor), with or without compound 101; DPBS with 200 µM sodium metabisulphite, room temperature, 2 µM Prolume Purple; dopamine for 5 min
PO4-null D2R = PO4-null D2R (Rattus norvegicus, UniProt P61169); experiment: β-arrestin2 recruitment BRET assay, PO4-null D2R; format: cell-based; conditions: dose-dependent (Figure 4D)
Human D2RL [2] = target: T1, Human D2RL (Homo sapiens, UniProt P14416); experiment: GRK2-GFP recruitment BRET assay (D2R–GRK2 interactions); format: cell-based; parameters: expressed in transfected cells; host or cells: HEK293 (parental or GRK knockout lines); conditions: dose-dependent (Figure 3C)
Human D2RL [3] = target: T1, Human D2RL; experiment: LYN BRET receptor internalization assay; format: cell-based; parameters: expressed in transfected cells; host or cells: HEK293 (parental or GRK knockout lines); conditions: dose-dependent; maximally effective concentration of 100 µM
Procedure: HEK293 cells were transiently transfected with the indicated D2R-Rluc8 (35 mm plate: 0.1 μg; 100 mm plate: 0.5 μg) and LYN-rGFP (35 mm plate: 1 μg; 100 mm plate: 5 μg) constructs and the indicated GRK construct (35 mm plate: 1 μg; 100 mm plate: 5 μg) or pcDNA control.

Human D2RL [4] = target: T1, Human D2RL; experiment: Go heterotrimer activation BRET assay; format: cell-based; parameters: expressed in transfected cells; host or cells: HEK293 (parental or GRK knockout lines); conditions: Cmpd101 treatment of HEK293 cells
Procedure: HEK293 cells were transiently transfected with the Gαo1-Rluc8 (35 mm plate: 0.1 μg; 100 mm plate: 0.5 μg), Gβ1 (35 mm plate: 0.9 μg; 100 mm plate: 4.5 μg), and Gγ2-mVenus (35 mm plate: 1 μg; 100 mm plate: 5 μg) constructs and the indicated untagged D2R construct (35 mm plate: 1 μg; 100 mm plate: 5 μg). […] Cells were then plated in 96-well white solid bottom plates (Greiner, Monroe, NC, USA) and incubated at room temperature for 45 min.

D2R–GRK2 interactions = system: D2R–GRK2 interactions; parameters: method as in Pack et al., 2018 [21]; conditions: similar BRET assay; ref Pack et al., 2018 [21]; cited from earlier work
Human D2RL [5] = target: T1, Human D2RL; experiment: β-arrestin2 recruitment BRET assay; format: cell-based; conditions: dose-dependent; maximally effective concentrations (10–100 µM)
other GRK isoforms = conditions: selectively inhibits the GRK2/3 subfamily; cited from earlier work
[6] = target: phosphorylation-null (PO4-null) rat D2 dopamine receptor, long isoform, fused to Rluc8 (rat) (UniProt P61169)

T1 sequence (P14416 whole entry): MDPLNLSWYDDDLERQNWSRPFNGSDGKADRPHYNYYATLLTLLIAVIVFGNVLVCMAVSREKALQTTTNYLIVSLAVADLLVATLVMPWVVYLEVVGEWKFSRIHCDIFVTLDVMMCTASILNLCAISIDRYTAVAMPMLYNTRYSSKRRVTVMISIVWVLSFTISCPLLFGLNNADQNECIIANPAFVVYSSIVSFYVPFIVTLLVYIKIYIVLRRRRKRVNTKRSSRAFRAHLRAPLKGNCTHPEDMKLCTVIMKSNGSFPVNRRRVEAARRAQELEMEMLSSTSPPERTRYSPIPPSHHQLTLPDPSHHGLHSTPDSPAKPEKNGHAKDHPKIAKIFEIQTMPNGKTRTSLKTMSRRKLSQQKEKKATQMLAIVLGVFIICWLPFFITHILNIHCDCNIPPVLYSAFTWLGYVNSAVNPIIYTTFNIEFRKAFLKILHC
phosphorylation-null (PO4-null) rat D2 dopamine receptor, long isoform, fused to Rluc8 (rat), sequence (P61169 whole entry, the tested form may be a part, canonical isoform): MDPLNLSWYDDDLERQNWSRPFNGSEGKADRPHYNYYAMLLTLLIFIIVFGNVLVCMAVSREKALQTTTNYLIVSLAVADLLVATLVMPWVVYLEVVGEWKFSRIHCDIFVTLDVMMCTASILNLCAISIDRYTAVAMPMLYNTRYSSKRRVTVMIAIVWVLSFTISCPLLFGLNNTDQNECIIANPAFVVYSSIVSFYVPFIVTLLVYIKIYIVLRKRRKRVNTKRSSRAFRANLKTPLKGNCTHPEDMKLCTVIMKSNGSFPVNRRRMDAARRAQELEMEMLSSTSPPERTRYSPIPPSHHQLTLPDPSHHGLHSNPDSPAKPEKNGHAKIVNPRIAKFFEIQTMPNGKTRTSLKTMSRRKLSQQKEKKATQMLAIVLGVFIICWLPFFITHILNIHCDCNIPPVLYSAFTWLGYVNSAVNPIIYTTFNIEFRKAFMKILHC
PO4-null D2R, sequence (P61169 whole entry): as the sequence (P61169 whole entry, the tested form may be a part, canonical isoform) above
GRK2-rGFP, sequence (P25098 whole entry): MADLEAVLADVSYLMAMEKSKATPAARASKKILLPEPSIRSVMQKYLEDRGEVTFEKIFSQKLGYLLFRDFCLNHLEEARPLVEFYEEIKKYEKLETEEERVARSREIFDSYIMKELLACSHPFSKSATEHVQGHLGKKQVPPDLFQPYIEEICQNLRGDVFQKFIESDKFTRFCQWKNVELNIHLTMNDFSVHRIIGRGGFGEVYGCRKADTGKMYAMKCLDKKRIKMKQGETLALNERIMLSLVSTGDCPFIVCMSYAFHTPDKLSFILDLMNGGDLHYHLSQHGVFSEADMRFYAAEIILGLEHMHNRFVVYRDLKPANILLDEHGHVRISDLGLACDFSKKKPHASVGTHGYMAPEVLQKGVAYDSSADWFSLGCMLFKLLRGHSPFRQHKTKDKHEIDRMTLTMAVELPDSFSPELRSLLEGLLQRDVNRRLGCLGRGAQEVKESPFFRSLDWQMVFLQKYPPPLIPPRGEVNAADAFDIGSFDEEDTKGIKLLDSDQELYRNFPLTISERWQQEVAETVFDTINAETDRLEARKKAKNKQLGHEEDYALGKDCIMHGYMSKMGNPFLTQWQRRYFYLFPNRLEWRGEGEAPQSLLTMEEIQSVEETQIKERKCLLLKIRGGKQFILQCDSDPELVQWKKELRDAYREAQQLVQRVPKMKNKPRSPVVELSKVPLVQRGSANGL
β-arrestin2-mVenus, sequence (P32121 whole entry): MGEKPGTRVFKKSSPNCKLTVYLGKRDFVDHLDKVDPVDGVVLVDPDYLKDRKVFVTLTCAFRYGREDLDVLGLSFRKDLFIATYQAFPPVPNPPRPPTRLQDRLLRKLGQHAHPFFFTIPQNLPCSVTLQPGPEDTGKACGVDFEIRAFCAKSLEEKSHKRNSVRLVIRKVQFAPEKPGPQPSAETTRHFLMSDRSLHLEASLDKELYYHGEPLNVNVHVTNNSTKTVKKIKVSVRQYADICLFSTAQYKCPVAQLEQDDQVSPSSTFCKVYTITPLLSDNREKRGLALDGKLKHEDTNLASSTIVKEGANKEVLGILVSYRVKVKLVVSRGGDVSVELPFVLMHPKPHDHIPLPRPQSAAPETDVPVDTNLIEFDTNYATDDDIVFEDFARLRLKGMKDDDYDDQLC

Emax of dopamine-stimulated BRET (% of WT D2R) [1]: 102 % of WT D2R
Compound: GRK2-rGFP (from UniProt P25098 1-689) (enzyme)

decrease of β-arrestin2 recruitment to the phospho-null D2R (PO4-null D2R): did not completely eliminate
inhibition of GRK2–D2R interactions (Human D2RL [2]): unable to completely block
inhibition of dopamine-stimulated D2R internalization (Human D2RL [3]): completely block
effect on D2R signaling through G proteins (Go activation BRET assay) (Human D2RL [4]): does not alter
inhibition of dopamine-stimulated β-arrestin2 recruitment to the D2R (Human D2RL [5]): unable to completely inhibit
Compound: Cn1c(CNc2cccc(C(=O)NCc3ccccc3C(F)(F)F)c2)nnc1-c1ccncc1 [Cmpd101]
effect on D2R–GRK2 interactions (D2R–GRK2 interactions): no effect
affinity for other GRK isoforms (other GRK isoforms): lacks affinity

dopamine-stimulated D2R internalization in HEK293 cells (LYN BRET), Emax as a percentage of WT D2R (β-arrestin not transfected in this assay) [6]: 100 % of WT D2R
Compound: β-arrestin2-mVenus (from UniProt P32121 1-409) (natural protein)
